Measurements published in ChEMBL document CHEMBL1201862, “PubChem BioAssay data set” (2004).
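Step 1: Grow cells in 96-well plates. Step 2: Expose to compound for 48 hours at 5 concentrations. Step 3: Interpolate endpoints linearly; if unreached, use highest concentration. At the GI50, growth is halved.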 Calls of active or inactive are those of the source. No stated cut-off is given here; in the data, active = GI50 up to about 1.1 µM and inactive = higher.

Legend:
Test in all cases: growth of human tumour cells (NCI), 48 h
A549 = system: A549
CAKI-1 = system: CAKI-1
COLO 205 = system: COLO 205
DU-145 = system: DU-145
EKVX = system: EKVX
HL-60 = system: HL-60
HOP-62 = system: HOP-62
HOP-92 = system: HOP-92
HT-29 = system: HT-29
Hs-578T = system: Hs-578T
IGROV-1 = system: IGROV-1
LOX IMVI = system: LOX IMVI
Malme-3M = system: Malme-3M
NCI-H522 = system: NCI-H522
OVCAR-5 = system: OVCAR-5
SF-539 = system: SF-539
SK-MEL-28 = system: SK-MEL-28
SK-OV-3 = system: SK-OV-3
SNB-75 = system: SNB-75
UACC-257 = system: UACC-257

Structure (SMILES)	GI50 (A549)	GI50 (CAKI-1)	GI50 (COLO 205)	GI50 (DU-145)	GI50 (EKVX)	GI50 (HL-60)	GI50 (HOP-62)	GI50 (HOP-92)	GI50 (HT-29)	GI50 (Hs-578T)	GI50 (IGROV-1)	GI50 (LOX IMVI)	GI50 (Malme-3M)	GI50 (NCI-H522)	GI50 (OVCAR-5)	GI50 (SF-539)	GI50 (SK-MEL-28)	GI50 (SK-OV-3)	GI50 (SNB-75)	GI50 (UACC-257)
COc1cc(C(=O)OC2CC34CCNC35CC(OC5(OC)C2O)c2cc3c(cc24)OCO3)ccc1O (stereo not given)	> 100 µM (inactive)	> 100 µM (inactive)	> 100 µM (inactive)	> 100 µM (inactive)	> 100 µM (inactive)	> 100 µM (inactive)	> 100 µM (inactive)	> 100 µM (inactive)	> 100 µM (inactive)	> 100 µM (inactive)	> 100 µM (inactive)	> 100 µM (inactive)	8.11 µM (inactive)	> 100 µM (inactive)	> 100 µM (inactive)	> 100 µM (inactive)	> 100 µM (inactive)	> 100 µM (inactive)	46.8 µM (inactive)	> 100 µM (inactive)
CCOC(=O)/C=C\C(C#N)(C#N)/N=C/c1ccsc1	19.1 µM (inactive)	2.25 µM (inactive)	1.9 µM (inactive)	16.5 µM (inactive)	16.5 µM (inactive)	2 µM (inactive)	19.4 µM (inactive)	2.05 µM (inactive)	11.1 µM (inactive)	19.5 µM (inactive)	14.5 µM (inactive)	4.06 µM (inactive)	2.29 µM (inactive)	0.9 µM (active)	18.2 µM (inactive)	6.55 µM (inactive)	2.38 µM (inactive)	20.8 µM (inactive)	13 µM (inactive)	6.81 µM (inactive)
CCCCCC(/C=N/Nc1ccccc1)C(O)(C(F)(F)F)C(F)(F)F (stereo not given)	> 100 µM (inactive)	> 100 µM (inactive)	> 100 µM (inactive)	> 100 µM (inactive)	> 100 µM (inactive)	> 100 µM (inactive)	> 100 µM (inactive)	> 100 µM (inactive)	> 100 µM (inactive)	> 100 µM (inactive)	> 100 µM (inactive)	> 100 µM (inactive)	> 100 µM (inactive)	> 100 µM (inactive)	> 100 µM (inactive)	> 100 µM (inactive)	> 100 µM (inactive)	> 100 µM (inactive)	> 100 µM (inactive)	> 100 µM (inactive)
Nn1c(Cc2ccc(Cl)cc2)n[nH]c1=O	> 100 µM (inactive)	50.5 µM (inactive)	> 100 µM (inactive)	> 100 µM (inactive)	> 100 µM (inactive)	> 100 µM (inactive)	72.1 µM (inactive)	> 100 µM (inactive)	> 100 µM (inactive)	> 100 µM (inactive)	> 100 µM (inactive)	> 100 µM (inactive)	> 100 µM (inactive)	> 100 µM (inactive)	> 100 µM (inactive)	> 100 µM (inactive)	> 100 µM (inactive)	> 100 µM (inactive)	> 100 µM (inactive)	> 100 µM (inactive)
O=C1C=C(Nc2ccccc2C(=O)CC(=O)C(=O)Nc2cccc(C(F)(F)F)c2)c2ccccc2C1=O	46.5 µM (inactive)	64 µM (inactive)	66.8 µM (inactive)	78 µM (inactive)	37.8 µM (inactive)	4.94 µM (inactive)	40 µM (inactive)	31.4 µM (inactive)	57.4 µM (inactive)	21 µM (inactive)	28.4 µM (inactive)	6.04 µM (inactive)	15.1 µM (inactive)	23.1 µM (inactive)	> 77.1 µM (inactive)	22.5 µM (inactive)	24.1 µM (inactive)	61.4 µM (inactive)	50.4 µM (inactive)	15.3 µM (inactive)
Cc1ccccc1NC(=S)N/N=C1\C(=O)Nc2ccccc21	> 100 µM (inactive)	> 100 µM (inactive)	> 100 µM (inactive)	31.4 µM (inactive)	> 100 µM (inactive)	> 100 µM (inactive)	> 100 µM (inactive)	> 100 µM (inactive)	> 100 µM (inactive)	> 100 µM (inactive)	> 100 µM (inactive)	> 100 µM (inactive)	> 100 µM (inactive)	> 100 µM (inactive)	> 100 µM (inactive)	> 100 µM (inactive)	15.1 µM (inactive)	> 100 µM (inactive)	> 100 µM (inactive)	> 100 µM (inactive)
O=C1c2[nH]c3ccccc3c2CCN2CCCCC12 (stereo not given)	24.9 µM (inactive)	38.2 µM (inactive)	18.7 µM (inactive)	36.4 µM (inactive)	23.4 µM (inactive)	1.8 µM (inactive)	29.3 µM (inactive)	18.5 µM (inactive)	34.1 µM (inactive)	28 µM (inactive)	20.2 µM (inactive)	22.3 µM (inactive)	25.6 µM (inactive)	20.3 µM (inactive)	21.6 µM (inactive)	21.1 µM (inactive)	37.4 µM (inactive)	31.1 µM (inactive)	28.5 µM (inactive)	17.7 µM (inactive)
O=C(NNCc1ccco1)c1cc2ccccc2[nH]1	> 100 µM (inactive)	> 100 µM (inactive)	> 100 µM (inactive)	> 100 µM (inactive)	61.5 µM (inactive)	> 29.1 µM (inactive)	> 52.6 µM (inactive)	48 µM (inactive)	> 86.9 µM (inactive)	14.9 µM (inactive)	50.7 µM (inactive)	> 100 µM (inactive)	> 100 µM (inactive)	34.3 µM (inactive)	> 100 µM (inactive)	> 61.9 µM (inactive)	> 100 µM (inactive)	> 56 µM (inactive)	47.9 µM (inactive)	> 62.5 µM (inactive)
N=c1oc2cc(O)ccc2cc1C(=O)Nc1ccccn1	> 100 µM (inactive)	51.9 µM (inactive)	14 µM (inactive)	25.4 µM (inactive)	40.2 µM (inactive)	30.5 µM (inactive)	> 100 µM (inactive)	> 100 µM (inactive)	29.7 µM (inactive)	> 100 µM (inactive)	44.9 µM (inactive)	34.4 µM (inactive)	47.2 µM (inactive)	3.43 µM (inactive)	> 100 µM (inactive)	92.9 µM (inactive)	76.7 µM (inactive)	37.2 µM (inactive)	36.5 µM (inactive)	> 100 µM (inactive)
O=C1c2cscc2C(=O)c2c(OCc3ccccc3)ccc(OCc3ccccc3)c21	> 100 µM (inactive)	> 100 µM (inactive)	> 100 µM (inactive)	> 100 µM (inactive)	> 100 µM (inactive)	96.4 µM (inactive)	> 100 µM (inactive)	> 100 µM (inactive)	58.1 µM (inactive)	> 100 µM (inactive)	83.2 µM (inactive)	97.9 µM (inactive)	> 100 µM (inactive)	> 100 µM (inactive)	> 100 µM (inactive)	> 100 µM (inactive)	> 100 µM (inactive)	> 100 µM (inactive)	56 µM (inactive)	> 100 µM (inactive)
